From US9789181B2, “PAN-DR binding polypeptides and uses thereof” (Epimmune Inc., priority 2009, dated 2017)
Where no end group is shown, it is not given here.

Columns and labels:
[1] = target: HLA DRB1 *0101 (Homo sapiens, UniProt P01903+P01911, A100R/D57E/F55L/F60I/F76Y/I96L/L162R/M171V/P40L/Q125E/R42F/V115G/Y59C); assay: IC50nM to purified HLA | DRB1 *0101
Description: (§1) Table printed on a drawing sheet, FIG. 1 (contd.)
(§2) Head of the field: IC50nM to purified HLA | DRB1 *0101
(§3) First copying reader's note: Continued from an earlier sheet of FIG. 1; decimal commas as printed, analog names encode substituted residues and positions, and some values are printed in italics or bold and some SEQ ID NOs underlined without a legend on this sheet.
(§4) Where the first naming reader finds the target: head: IC50nM to purified HLA | DRB1 *0101

[2] = target: HLA DRB1 *0301 (Homo sapiens, UniProt P01903+P01911, A100K/A102G/A103R/A169T/F55Y/I96L/K41T/L162R/M171V/P40S/Q125H/Q178H/Q39Y/R42S/S66N/T106N/T262R/W38E/Y61H); assay: IC50nM to purified HLA | DRB1 *0301
Chain of HLA DRB1 *0301 (P01903 26-254 limits assumed, other chains not shown): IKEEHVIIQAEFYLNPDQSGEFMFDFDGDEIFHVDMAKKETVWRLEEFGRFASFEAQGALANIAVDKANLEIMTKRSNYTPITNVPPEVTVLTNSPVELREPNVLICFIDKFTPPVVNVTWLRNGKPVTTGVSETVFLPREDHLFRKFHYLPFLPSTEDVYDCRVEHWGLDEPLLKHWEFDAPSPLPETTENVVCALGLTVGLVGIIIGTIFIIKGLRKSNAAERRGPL
Description: as §1
(§5) Head of the field: IC50nM to purified HLA | DRB1 *0301
as §3
(§6) Where the first naming reader finds the target: head: IC50nM to purified HLA | DRB1 *0301

[3] = target: HLA DRB1 *0701 (Homo sapiens, UniProt P01903+P01911, A100R/A102G/A103Q/D57E/D86V/E43K/F76Y/K127E/L162R/M171V/P40G/Q125H/Q99D/R33Q/R42Y/R54Q/S133A/S66F/T210M/V115G/Y107V/Y59L/Y89S); assay: IC50nM to purified HLA | DRB1 *0701
Description: as §1
(§7) Head of the field: IC50nM to purified HLA | DRB1 *0701
as §3
(§8) Where the first naming reader finds the target: head: IC50nM to purified HLA | DRB1 *0701

[4] = target: HLA DRB1 *0802 (Homo sapiens, UniProt P01903+P01911, A100R/A103L/A169T/F76Y/H45Y/I96F/K41T/L162R/M171V/P40S/Q125H/Q178H/Q39Y/Q99D/R218S/R42G/S66Y/V115G/W38E); assay: IC50nM to purified HLA | DRB1 *0802
Description: as §1
(§9) Head of the field: IC50nM to purified HLA | DRB1 *0802
as §3
(§10) Where the first naming reader finds the target: head: IC50nM to purified HLA | DRB1 *0802

[5] = target: HLA DRB4 *0101 (Homo sapiens, UniProt P01903+P13762, G164S); assay: IC50nM to purified HLA | DRB4 *0101
Chain of HLA DRB4 *0101 (P01903 26-254 limits assumed): as the sequence (P01903 26-254 limits assumed, other chains not shown) above
Chain of HLA DRB4 *0101 (P13762 whole entry G164S): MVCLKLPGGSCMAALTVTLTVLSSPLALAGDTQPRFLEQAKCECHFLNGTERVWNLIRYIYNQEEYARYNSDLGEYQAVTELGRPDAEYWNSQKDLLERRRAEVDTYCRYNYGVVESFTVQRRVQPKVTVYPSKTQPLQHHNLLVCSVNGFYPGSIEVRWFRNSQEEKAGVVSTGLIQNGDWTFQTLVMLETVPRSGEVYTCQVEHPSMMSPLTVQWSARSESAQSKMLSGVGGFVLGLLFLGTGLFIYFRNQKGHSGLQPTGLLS
Description: as §1
(§11) Head of the field: IC50nM to purified HLA | DRB4 *0101
as §3
(§12) Where the first naming reader finds the target: head: IC50nM to purified HLA | DRB4 *0101

[6] = target: HLA DRB1 *1501 (Homo sapiens, UniProt P01903+P01911); assay: IC50nM to purified HLA | DRB1 *1501
Description: as §1
(§13) Head of the field: IC50nM to purified HLA | DRB1 *1501
as §3
(§14) Where the first naming reader finds the target: head: IC50nM to purified HLA | DRB1 *1501

[7] = target: HLA DRB1 *0404 (Homo sapiens, UniProt P01903+P01911, A100R/A169T/F76Y/I96L/K127E/L162R/M171V/N62H/P40V/Q125Y/R42H/S133A/S149N/S66Y/V209L/W38E); assay: IC50nM to purified HLA | DRB1 *0404
Description: as §1
(§15) Head of the field: IC50nM to purified HLA | DRB1 *0404
as §3
(§16) Where the first naming reader finds the target: head: IC50nM to purified HLA | DRB1 *0404

[8] = target: HLA DRB1 *0405 (Homo sapiens, UniProt P01903+P01911, A100R/A169T/D86S/F76Y/I96L/K127E/L162R/M171V/N62H/P40V/Q125Y/R42H/S133A/S149N/S66Y/V115G/V209L/W38E); assay: IC50nM to purified HLA | DRB1 *0405
Description: as §1
(§17) Head of the field: IC50nM to purified HLA | DRB1 *0405
as §3
(§18) Where the first naming reader finds the target: head: IC50nM to purified HLA | DRB1 *0405

[9] = target: HLA DRB1 *1302 (Homo sapiens, UniProt P01903+P01911, A100E/A169T/K41T/L162R/M171V/P40S/Q125H/Q178H/Q39Y/Q99D/R42S/S66N/T262R/V115G/W38E/Y61H); assay: IC50nM to purified HLA | DRB1 *1302
Chain of HLA DRB1 *1302 (P01903 26-254 limits assumed, other chains not shown): as the sequence (P01903 26-254 limits assumed, other chains not shown) above
Description: as §1
(§19) Head of the field: IC50nM to purified HLA | DRB1 *1302
as §3
(§20) Where the first naming reader finds the target: head: IC50nM to purified HLA | DRB1 *1302

[10] = target: purified HLA DRB1 *0101 (Homo sapiens, UniProt P01903+P01911, A100R/D57E/F55L/F60I/F76Y/I96L/L162R/M171V/P40L/Q125E/R42F/V115G/Y59C); assay: IC50nM to purified HLA | DRB1 *0101
Description: (§21) Table printed on a drawing sheet, FIG. 1
as §2
(§22) First copying reader's note: The comma is the decimal sign and the point a thousands separator (e.g. 21.831); some values are printed bold or italic and some SEQ ID NOs underlined, with no legend on the sheet.
as §4

[11] = target: purified HLA DRB1 *0401 (Homo sapiens, UniProt P01903+P01911, A100K/A169T/F76Y/I96L/K127E/L162R/M171V/N62H/P40V/Q125Y/R42H/S133A/S149N/S66Y/V115G/V209L/W38E); assay: IC50nM to purified HLA | DRB1 *0401
Description: as §21
Head of the field: IC50nM to purified HLA | DRB1 *0401
as §22
Where the first naming reader finds the target: head: IC50nM to purified HLA | DRB1 *0401

[12] = target: purified HLA DRB1 *0404 (Homo sapiens, UniProt P01903+P01911, A100R/A169T/F76Y/I96L/K127E/L162R/M171V/N62H/P40V/Q125Y/R42H/S133A/S149N/S66Y/V209L/W38E); assay: IC50nM to purified HLA | DRB1 *0404
Description: as §21, §15, §22, §16

[13] = target: purified HLA DRB1 *0405 (Homo sapiens, UniProt P01903+P01911, A100R/A169T/D86S/F76Y/I96L/K127E/L162R/M171V/N62H/P40V/Q125Y/R42H/S133A/S149N/S66Y/V115G/V209L/W38E); assay: IC50nM to purified HLA | DRB1 *0405
Description: as §21, §17, §22, §18

[14] = target: purified HLA DRB1 *0701 (Homo sapiens, UniProt P01903+P01911, A100R/A102G/A103Q/D57E/D86V/E43K/F76Y/K127E/L162R/M171V/P40G/Q125H/Q99D/R33Q/R42Y/R54Q/S133A/S66F/T210M/V115G/Y107V/Y59L/Y89S); assay: IC50nM to purified HLA | DRB1 *0701
Description: as §21, §7, §22, §8

[15] = target: purified HLA DRB1 *0802 (Homo sapiens, UniProt P01903+P01911, A100R/A103L/A169T/F76Y/H45Y/I96F/K41T/L162R/M171V/P40S/Q125H/Q178H/Q39Y/Q99D/R218S/R42G/S66Y/V115G/W38E); assay: IC50nM to purified HLA | DRB1 *0802
Description: as §21, §9, §22, §10

[16] = target: purified HLA DRB1 *0901 (Homo sapiens, UniProt P01903+P01911, A100R/A103E/D57H/D86V/F55Y/F60I/F76Y/I96F/K127E/L162R/M171V/P40D/Q125H/Q99R/R33Q/R42F/S133A/S66N/T210M/V115G/W38K/Y107V/Y59G/Y89S); assay: IC50nM to purified HLA | DRB1 *0901
Description: as §21
Head of the field: IC50nM to purified HLA | DRB1 *0901
as §22
Where the first naming reader finds the target: head: IC50nM to purified HLA | DRB1 *0901

[17] = target: purified HLA DRB1 *1101 (Homo sapiens, UniProt P01903+P01911, A100R/A169T/A87E/I96F/K41T/L162R/M171V/P40S/Q125H/Q178H/Q39Y/Q99D/R42S/S66Y/T262R/V115G/W38E); assay: IC50nM to purified HLA | DRB1 *1101
Chain of purified HLA DRB1 *1101 (P01903 26-254 limits assumed, other chains not shown): as above
Description: as §21
Head of the field: IC50nM to purified HLA | DRB1 *1101
as §22
Where the first naming reader finds the target: head: IC50nM to purified HLA | DRB1 *1101

[18] = target: purified HLA DRB1 *1302 (Homo sapiens, UniProt P01903+P01911, A100E/A169T/K41T/L162R/M171V/P40S/Q125H/Q178H/Q39Y/Q99D/R42S/S66N/T262R/V115G/W38E/Y61H); assay: IC50nM to purified HLA | DRB1 *1302
Chain of purified HLA DRB1 *1302 (P01903 26-254 limits assumed, other chains not shown): as above
Description: as §21, §19, §22, §20

[19] = target: purified HLA DRB1 *1501 (Homo sapiens, UniProt P01903+P01911); assay: IC50nM to purified HLA | DRB1 *1501
Description: as §21, §13, §22, §14

[20] = target: purified HLA DRB1 *0301 (Homo sapiens, UniProt P01903+P01911, A100K/A102G/A103R/A169T/F55Y/I96L/K41T/L162R/M171V/P40S/Q125H/Q178H/Q39Y/R42S/S66N/T106N/T262R/W38E/Y61H); assay: IC50nM to purified HLA | DRB1 *0301
Chain of purified HLA DRB1 *0301 (P01903 26-254 limits assumed, other chains not shown): as above
Description: as §21, §5, §22, §6

[21] = target: purified HLA DRB4 *0101 (Homo sapiens, UniProt P01903+P13762, G164S); assay: IC50nM to purified HLA | DRB4 *0101
Chain of purified HLA DRB4 *0101 (P01903 26-254 limits assumed): as the sequence (P01903 26-254 limits assumed, other chains not shown) above
Chain of purified HLA DRB4 *0101 (P13762 whole entry G164S): as the sequence (P13762 whole entry G164S) above
Description: as §21, §11, §22, §12

[22] = target: purified HLA DRB5 *0101 (Homo sapiens, UniProt P01903+Q30154); assay: IC50nM to purified HLA | DRB5 *0101
Description: as §21
Head of the field: IC50nM to purified HLA | DRB5 *0101
as §22
Where the first naming reader finds the target: head: IC50nM to purified HLA | DRB5 *0101

Compound	IC50 [2]	IC50 [10]	IC50 [11]	IC50 [12]	IC50 [13]	IC50 [14]	IC50 [16]	IC50 [17]	IC50 [18]	IC50 [19]	IC50 [21]	IC50 [22]	other results
AAAIFVAAWTLKAAA [SEQ ID NO: 68]	393 nM												IC50 [1]: 4 nM; IC50 [3]: 75 nM; IC50 [4]: 14 nM; IC50 [5]: 124 nM; IC50 [6]: 7.3 nM; IC50 [7]: 1.6 nM
AAANFVAAFTLKAEA [SEQ ID NO: 61]	1540 nM												IC50 [1]: 8 nM; IC50 [8]: 12 nM; IC50 [4]: 14 nM; IC50 [5]: 492 nM; IC50 [9]: 1570 nM
AAAFFVAAWTLKADA [SEQ ID NO: 16]		7.2 nM	5.3 nM	2.7 nM	22 nM	91 nM	32 nM	65 nM	7050 nM	64 nM			IC50 [15]: 20 nM
AAAQFVAAWTLHAAA [SEQ ID NO: 64]	187 nM												IC50 [8]: 13 nM; IC50 [9]: 1120 nM; IC50 [6]: 13 nM
AAAFFVAAWTLKAAA [SEQ ID NO: 11]		5.7 nM	2.4 nM	7.3 nM	31 nM	74 nM	31 nM	27 nM	2810 nM	32 nM	517 nM	9.9 nM	IC50 [20]: 227 nM
AAAFFVAAFTLKADA [SEQ ID NO: 18]		43 nM	4.5 nM	6.1 nM	8.4 nM		113 nM	57 nM		66 nM	12500 nM	9.4 nM	
CC(C)C[C@H](NC(=O)[C@@H](NC(=O)[C@H](Cc1c[nH]c2ccccc12)NC(=O)[C@H](C)NC(=O)[C@H](C)NC(=O)[C@@H](NC(=O)[C@H](Cc1ccccc1)NC(=O)[C@H](CCCCN)NC(=O)[C@H](C)N)C(C)C)[C@@H](C)O)C(=O)N[C@@H](CCCCN)C(=O)N[C@@H](C)C(=O)N[C@@H](C)C(=O)N[C@@H](C)C(=O)O [SEQ ID NO: 3]		4 nM	1.4 nM	0.79 nM	32 nM	97 nM	50 nM	9.1 nM	367 nM	37 nM	447 nM	19 nM	IC50 [20]: 289 nM; IC50 [15]: 9.5 nM
